Assay results reported in paper PMC6972920, “Structure-based development of caged dopamine D2/D3 receptor antagonists” (Scientific Reports, 2020).
“Also recorded” adds a separate entry of the source. Where two headings read alike, the source gives them in different places.

Experiments:
[1] = biological target: T1, human adrenergic α2A receptor (Homo sapiens, UniProt P08913); test: Competition binding, [3H]RX821002, HEK293T membranes
T1 construct: expressed in transfected cells; host or cells: HEK293T cells, transient transfection
T1 sequence (P08913 1-465): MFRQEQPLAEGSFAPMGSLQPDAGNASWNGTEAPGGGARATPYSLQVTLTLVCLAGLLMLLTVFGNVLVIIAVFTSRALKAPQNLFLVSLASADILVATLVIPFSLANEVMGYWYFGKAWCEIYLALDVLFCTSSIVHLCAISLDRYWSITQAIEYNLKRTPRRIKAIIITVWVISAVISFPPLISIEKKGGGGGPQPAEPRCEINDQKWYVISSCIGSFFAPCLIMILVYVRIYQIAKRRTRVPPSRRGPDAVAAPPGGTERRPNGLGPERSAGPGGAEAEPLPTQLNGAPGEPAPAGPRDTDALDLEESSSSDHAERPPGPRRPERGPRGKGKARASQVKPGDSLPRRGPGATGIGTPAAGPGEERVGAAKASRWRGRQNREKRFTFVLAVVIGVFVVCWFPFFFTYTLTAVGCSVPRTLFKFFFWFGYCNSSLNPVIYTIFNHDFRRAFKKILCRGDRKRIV

[2] = Compound stability and photolysis in aqueous buffer monitored by HPLC; type: physicochemical; settings: for behaviour upon illumination with λp = 365 nm (in words): aqueous buffer, LED 365 nm, HPLC; for stability in the absence of light (in words): dark, storage and solution, HPLC/LCMS
Description: All measurements were performed in aqueous buffer solution. Compound stability and photolysis was monitored by HPLC. […] Excitation of NB- and DMNB-type cages to trigger photolysis is usually performed with light of 300–400 nm. This absorption profile may limit the wavelength range for cage photolysis, as simultaneous excitation of the core pharmacophore may trigger photolytic degradation of the desired product. We performed photolysis experiments using a near UV light-emitting diode (LED) light source with a peak wavelength of λp = 365 nm and a spectrum half width of Δλ = 9 nm.
No unspecific degradation of the pharmacophore was observed, resulting in constant concentration of the desired product. […] The exposure to ambient light for longer time led to partial photolytic degradation. After incubation in aqueous buffer at ambient light for 1 h, we detected remaining 51% and 62% of the initial concentrations of 4 (MG307) and 5, respectively.
For compound characterization, UV/Vis absorption spectra of samples with c = 0.1 mM in methanol were measured on an Analytik Jena Specord 200 Plus spectrometer (λ = 210–400 nm). Irradiation experiments to trigger photolysis were performed in open HPLC glass vials using a LED (λ = 365 nm, 4.5 V, 0.7 A) to irradiate the samples from top. An aqueous buffer solution served as solvent (50 mM Tris, 1 mM EDTA, 50 mM MgCl2, 100 µg/ml bacitracin, 5 µg/ml soybean trypsin inhibitor), with initial sample concentrations of […] and sample volumes of 100 µl. Photolysis was monitored by HPLC as specified before (eluent system 1). […] Unless specified differently, all experiments were performed in triplicate.

[3] = biological target: T2, human dopamine receptor subtype D4.4 (Homo sapiens, UniProt P21917); test: Radioligand displacement, [3H]spiperone, CHO cell membranes; type: binding
T2 sequence (P21917 1-419): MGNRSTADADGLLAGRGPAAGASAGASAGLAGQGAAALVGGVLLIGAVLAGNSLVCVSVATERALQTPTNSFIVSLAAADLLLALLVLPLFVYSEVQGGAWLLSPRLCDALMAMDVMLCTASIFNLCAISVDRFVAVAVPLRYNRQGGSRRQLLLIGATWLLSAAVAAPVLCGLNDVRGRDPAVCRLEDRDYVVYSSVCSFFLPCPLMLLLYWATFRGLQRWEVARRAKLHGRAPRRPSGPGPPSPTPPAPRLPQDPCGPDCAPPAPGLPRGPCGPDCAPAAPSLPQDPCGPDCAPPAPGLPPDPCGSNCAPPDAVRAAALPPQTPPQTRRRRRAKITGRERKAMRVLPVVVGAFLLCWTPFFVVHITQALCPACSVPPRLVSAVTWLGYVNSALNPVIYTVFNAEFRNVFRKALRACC

[4] = biological target: human dopamine receptor subtype D2L (Homo sapiens, UniProt P14416); test: as above; type: binding
human dopamine receptor subtype D2L, sequence (P14416 whole entry): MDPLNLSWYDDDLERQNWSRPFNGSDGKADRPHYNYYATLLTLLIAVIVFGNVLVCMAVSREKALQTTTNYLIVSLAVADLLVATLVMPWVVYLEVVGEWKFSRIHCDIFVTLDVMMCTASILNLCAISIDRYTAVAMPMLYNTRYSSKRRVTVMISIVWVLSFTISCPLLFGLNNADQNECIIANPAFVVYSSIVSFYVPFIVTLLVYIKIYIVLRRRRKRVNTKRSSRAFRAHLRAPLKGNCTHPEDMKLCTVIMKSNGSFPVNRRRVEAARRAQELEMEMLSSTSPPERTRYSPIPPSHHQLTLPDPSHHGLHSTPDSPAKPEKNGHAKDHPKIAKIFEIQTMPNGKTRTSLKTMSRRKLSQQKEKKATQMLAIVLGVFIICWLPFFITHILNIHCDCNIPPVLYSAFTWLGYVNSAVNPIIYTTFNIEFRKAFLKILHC

[5] = biological target: all dopamine receptor subtypes; test: Radioligand binding, text summary over all dopamine receptor subtypes tested; design: species or system human; settings: range over D2L, D2S, D3, D4.4, stated in text; read-out: Ki values towards all dopamine receptor subtypes (range)
[6] = biological target: human dopamine receptor subtype D2S (Homo sapiens, UniProt P14416); test: Radioligand displacement, [3H]spiperone, CHO cell membranes; type: binding
human dopamine receptor subtype D2S, sequence (P14416 1-414 isoform P14416-2): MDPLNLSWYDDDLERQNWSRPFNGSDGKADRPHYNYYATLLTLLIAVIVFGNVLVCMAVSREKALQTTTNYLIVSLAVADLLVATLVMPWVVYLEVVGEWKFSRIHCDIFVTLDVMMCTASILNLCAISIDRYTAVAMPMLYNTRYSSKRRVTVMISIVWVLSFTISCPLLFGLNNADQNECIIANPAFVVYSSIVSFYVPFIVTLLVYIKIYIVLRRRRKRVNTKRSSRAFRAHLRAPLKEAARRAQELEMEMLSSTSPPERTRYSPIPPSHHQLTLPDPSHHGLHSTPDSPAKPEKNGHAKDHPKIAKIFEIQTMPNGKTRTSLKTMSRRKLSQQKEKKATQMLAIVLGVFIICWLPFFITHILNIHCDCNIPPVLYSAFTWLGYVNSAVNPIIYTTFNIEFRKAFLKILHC

[7] = biological target: human dopamine receptor subtype D3 (Homo sapiens, UniProt P35462); test: as above; type: binding; settings: mean ± SEM of 4-9 experiments, compounds 1, 2, 3: ± SD of two experiments
human dopamine receptor subtype D3, sequence (P35462 whole entry): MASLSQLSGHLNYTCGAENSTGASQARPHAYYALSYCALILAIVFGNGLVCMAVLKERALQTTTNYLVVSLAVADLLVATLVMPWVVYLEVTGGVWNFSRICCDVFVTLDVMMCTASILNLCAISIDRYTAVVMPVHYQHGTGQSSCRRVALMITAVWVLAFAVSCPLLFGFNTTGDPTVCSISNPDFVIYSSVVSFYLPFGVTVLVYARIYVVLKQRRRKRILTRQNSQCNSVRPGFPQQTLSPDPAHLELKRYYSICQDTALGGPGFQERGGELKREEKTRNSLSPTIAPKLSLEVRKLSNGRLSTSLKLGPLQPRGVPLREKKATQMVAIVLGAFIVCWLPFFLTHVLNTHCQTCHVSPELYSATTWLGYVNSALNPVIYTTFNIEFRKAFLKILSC

[8] = biological target: T3, dopamine D2S receptor co-expressed with hybrid Gαqi in HEK293T cells (Homo sapiens, UniProt P14416); test: IP accumulation assay (IP-One HTRF), agonist / inverse agonist effect; type: cell-based
T3 construct: expressed in transfected cells; host or cells: HEK-293T cells, transient co-transfection
T3 sequence (P14416 1-414 isoform P14416-2): as the sequence (P14416 1-414 isoform P14416-2) above

[9] = biological target: T4, D2S receptor (HEK293T cells co-transfected with D2S and Gαqi) (Homo sapiens, UniProt P14416); test: Illumination experiment: test compound solution irradiated at 365 nm before addition to cells, quinpirole stimulated IP accumulation; type: cell-based; settings: controls; 10 nM quinpirole
T4 construct: expressed in transfected cells; host or cells: HEK-293T cells, transient co-transfection
T4 sequence (P14416 1-414 isoform P14416-2): as above
Source text: […]. Mean curves ± SEM of 4–9 individual curves each done in triplicates. […]. Mean curves from 3–4 experiments each done in duplicate. […]. While 4 (MG307) (green bars) is completely released after 10 sec, the uncaging of 5 (red bars) needs 20 sec. […]. Mean bars ± SEM derived from 3–11 individual experiments each done in quintuplicates. Irradiation with a solution of test compound before addition to the cellular test system. […]. Means ± SEM from 6 experiments in quintuplicates.
[…]. Actually, we observed an onset of a strong inverse agonist effect on quinpirole-induced IP accumulation after irradiation of the nitrobenzyl-caged compound 4 (MG307). […] […]. […] To complement uncaging of the test compounds by irradiation of the test compounds before addition to receptor by a biologically more significant experiment, we investigated whether uncaging can also be accomplished directly in the cellular system. […] In fact, quinpirole-promoted IP accumulation was substantially attenuated after irradiation for 10 or 20 sec. […] […]. […] […].
HEK293T cells were transiently co-transfected with D2S and Gαqi. Solutions of the test compounds were irradiated at λ = 365 nm using the same LED as for the photochemistry experiments (see above) for 2, 5, 10 or 20 sec and the test compound was added to the cell system immediately after illumination. […]. Accumulation of IP was determined as described above. […]. Basal activity (buffer) was set as 0%. As a control, quinpirole was irradiated for 20 sec without observing any difference to the effect of the untreated analog. […]. All irradiation experiments were carried out in the dark or under dim light.

[10] = biological target: T3, dopamine D2S receptor co-expressed with hybrid Gαqi in HEK293T cells; test: IP accumulation assay (IP-One HTRF), inhibition of 10 nM quinpirole; type: cell-based
D2 and D3 receptors = test: Radioligand binding, summary over D2 and D3 subtypes; design: species or system human; settings: range over D2L, D2S, D3, stated in text
[11] = biological target: T5, human serotonin 5-HT2A receptor (Homo sapiens, UniProt P28223); test: Competition binding, [3H]ketanserin, HEK293T membranes; settings: ± SD of two experiments
T5 construct: expressed in transfected cells; host or cells: HEK293T cells, transient transfection
T5 sequence (P28223 whole entry): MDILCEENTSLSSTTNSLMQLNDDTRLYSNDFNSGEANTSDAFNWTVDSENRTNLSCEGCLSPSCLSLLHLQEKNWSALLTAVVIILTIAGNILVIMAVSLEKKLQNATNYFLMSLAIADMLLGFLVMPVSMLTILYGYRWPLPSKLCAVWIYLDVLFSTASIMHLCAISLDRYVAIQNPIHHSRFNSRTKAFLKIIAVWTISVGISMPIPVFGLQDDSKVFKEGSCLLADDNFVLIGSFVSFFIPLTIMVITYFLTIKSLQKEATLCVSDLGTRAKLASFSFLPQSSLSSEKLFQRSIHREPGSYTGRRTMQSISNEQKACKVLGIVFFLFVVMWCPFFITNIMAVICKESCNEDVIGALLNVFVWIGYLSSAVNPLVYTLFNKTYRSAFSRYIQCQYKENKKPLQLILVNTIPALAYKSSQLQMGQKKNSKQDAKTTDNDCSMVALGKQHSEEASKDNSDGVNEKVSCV

[12] = biological target: T6, human dopamine D5 receptor (Homo sapiens, UniProt P21918); test: Competition binding, [3H]SCH23390, HEK293T membranes
T6 construct: expressed in transfected cells; host or cells: HEK293T cells, transient transfection
T6 sequence (P21918 whole entry): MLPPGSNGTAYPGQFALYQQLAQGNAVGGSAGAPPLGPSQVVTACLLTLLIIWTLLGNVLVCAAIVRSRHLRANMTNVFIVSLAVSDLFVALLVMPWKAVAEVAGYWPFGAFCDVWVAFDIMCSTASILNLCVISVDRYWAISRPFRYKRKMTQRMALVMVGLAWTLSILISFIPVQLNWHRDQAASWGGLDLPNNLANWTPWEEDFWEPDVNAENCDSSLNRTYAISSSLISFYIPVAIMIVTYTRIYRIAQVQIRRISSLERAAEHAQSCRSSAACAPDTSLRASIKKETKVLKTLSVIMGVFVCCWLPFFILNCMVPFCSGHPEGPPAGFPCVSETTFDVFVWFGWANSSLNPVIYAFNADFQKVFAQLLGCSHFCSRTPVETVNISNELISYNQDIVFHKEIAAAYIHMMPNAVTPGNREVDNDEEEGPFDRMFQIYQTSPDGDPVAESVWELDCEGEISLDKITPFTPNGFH

[13] = biological target: T7, human adrenergic α1A receptor (Homo sapiens, UniProt P35348); test: Competition binding, [3H]prazosin, HEK293T membranes; settings: ± SD of two experiments
T7 construct: expressed in transfected cells; host or cells: HEK293T cells, transient transfection
T7 sequence (P35348 1-466): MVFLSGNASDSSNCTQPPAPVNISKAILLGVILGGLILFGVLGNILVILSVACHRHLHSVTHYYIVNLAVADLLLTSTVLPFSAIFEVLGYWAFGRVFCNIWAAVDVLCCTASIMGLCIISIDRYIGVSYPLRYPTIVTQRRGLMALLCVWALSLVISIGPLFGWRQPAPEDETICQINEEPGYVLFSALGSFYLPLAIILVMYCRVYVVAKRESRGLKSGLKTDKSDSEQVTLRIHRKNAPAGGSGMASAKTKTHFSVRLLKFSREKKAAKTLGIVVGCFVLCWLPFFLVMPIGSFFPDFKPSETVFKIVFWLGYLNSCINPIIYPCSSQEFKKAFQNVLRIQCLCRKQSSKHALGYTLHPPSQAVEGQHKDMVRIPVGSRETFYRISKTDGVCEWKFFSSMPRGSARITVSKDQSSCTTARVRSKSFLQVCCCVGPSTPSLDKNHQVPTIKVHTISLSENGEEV

[14] = biological target: T8, human serotonin 5-HT1A receptor (Homo sapiens, UniProt P08908); test: Competition binding, [3H]WAY600135, HEK293T membranes; settings: ± SD of two experiments
T8 construct: expressed in transfected cells; host or cells: HEK293T cells, transient transfection
T8 sequence (P08908 1-422): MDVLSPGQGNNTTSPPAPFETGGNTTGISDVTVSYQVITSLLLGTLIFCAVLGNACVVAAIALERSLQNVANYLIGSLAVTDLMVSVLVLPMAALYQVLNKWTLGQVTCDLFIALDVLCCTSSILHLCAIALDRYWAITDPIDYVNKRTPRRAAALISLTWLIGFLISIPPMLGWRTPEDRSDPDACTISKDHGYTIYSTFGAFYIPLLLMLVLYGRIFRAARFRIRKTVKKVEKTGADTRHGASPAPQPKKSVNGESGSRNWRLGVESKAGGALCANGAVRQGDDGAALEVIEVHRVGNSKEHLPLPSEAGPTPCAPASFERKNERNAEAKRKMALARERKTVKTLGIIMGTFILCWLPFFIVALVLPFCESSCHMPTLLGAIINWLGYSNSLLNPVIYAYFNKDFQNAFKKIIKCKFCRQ

[15] = biological target: T9, human dopamine D1 receptor (Homo sapiens, UniProt P21728); test: Competition binding, [3H]SCH23390, HEK293T membranes
T9 construct: expressed in transfected cells; host or cells: HEK293T cells, transient transfection
T9 sequence (P21728 whole entry): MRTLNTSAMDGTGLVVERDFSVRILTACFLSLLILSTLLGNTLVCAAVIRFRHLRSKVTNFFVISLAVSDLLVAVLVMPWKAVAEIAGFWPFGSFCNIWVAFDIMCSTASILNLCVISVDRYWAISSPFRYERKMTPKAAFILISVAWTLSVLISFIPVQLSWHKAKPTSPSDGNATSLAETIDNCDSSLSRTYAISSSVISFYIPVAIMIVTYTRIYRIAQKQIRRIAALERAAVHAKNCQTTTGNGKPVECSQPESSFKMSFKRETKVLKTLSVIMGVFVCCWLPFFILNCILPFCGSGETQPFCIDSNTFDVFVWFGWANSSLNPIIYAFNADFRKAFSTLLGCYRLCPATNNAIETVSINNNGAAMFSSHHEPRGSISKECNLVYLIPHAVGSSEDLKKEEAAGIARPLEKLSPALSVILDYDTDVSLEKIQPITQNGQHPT

[16] = biological target: T10, human adrenergic β2 receptor (Homo sapiens, UniProt P07550); test: Competition binding, [3H]CGP12177, HEK293T membranes; settings: ± SD of two experiments
T10 construct: expressed in transfected cells; host or cells: HEK293T cells, transient transfection
T10 sequence (P07550 whole entry): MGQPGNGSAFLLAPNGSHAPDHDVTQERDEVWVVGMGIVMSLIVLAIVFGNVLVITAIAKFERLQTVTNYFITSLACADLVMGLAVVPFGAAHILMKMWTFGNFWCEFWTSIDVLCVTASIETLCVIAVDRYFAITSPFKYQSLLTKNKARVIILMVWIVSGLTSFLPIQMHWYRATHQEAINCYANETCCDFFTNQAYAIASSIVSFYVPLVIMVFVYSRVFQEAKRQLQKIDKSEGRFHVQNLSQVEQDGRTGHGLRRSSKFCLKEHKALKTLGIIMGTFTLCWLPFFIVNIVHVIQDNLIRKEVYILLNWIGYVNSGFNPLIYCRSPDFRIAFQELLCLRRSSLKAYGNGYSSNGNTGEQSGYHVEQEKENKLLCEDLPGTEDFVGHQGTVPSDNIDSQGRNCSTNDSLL

[17] = [3H]spiperone, mean ± SEM of 4-9 experiments, compounds 1, 2, 3: ± SD of two experiments, read-out: Ki value D4.4
[18] = [3H]spiperone, mean ± SEM of 4-9 experiments, compounds 1, 2, 3: ± SD of two experiments, read-out: Ki value D2L
[19] = [3H]spiperone, mean ± SEM of 4-9 experiments, compounds 1, 2, 3: ± SD of two experiments, read-out: Ki value D2S

COC1(C2=NCCN2)COc2ccccc2O1 (centres unmarked) [[^3H]RX801002]
Kd ([1]; HEK293T membranes, read-out: KD of radioligand for α2A): 0.29 nM

CCc1cc(Cl)c(OC)c(C(=O)NC[C@@H]2CCCN2CC)c1OCc1ccccc1[N+](=O)[O-] [compound 1]
behaviour upon illumination with λp = 365 nm (in words) [2]: complete photolysis after seconds of irradiation | stability in the absence of light (in words) [2]: not fully stable and slowly decomposed to liberate eticlopride even in the absence of light | Ki [3, 17]: 2800 ± 1200 nM

CCc1cc(Cl)c(OC)c(C(=O)NC[C@@H]2CCCN2CC)c1OCc1cc(OC)c(OC)cc1[N+](=O)[O-] [compound 2]
behaviour upon illumination with λp = 365 nm (in words) [2]: Rapid photolytic degradation | stability in the absence of light (in words) [2]: not fully stable and slowly decomposed to liberate eticlopride even in the absence of light

CCc1cc(Cl)c(OC)c(C(=O)NC[C@@H]2CCCN2CC)c1OCc1ccccc1 [compound 3]
Ki [4, 18]: 4800 ± 3500 nM | Ki [5]: 4800 to 22000 nM | Ki [6, 19]: 6200 ± 3500 nM | Ki [7]: 5600 ± 5400 nM

CCc1ccc(OC)c(C(=O)NC[C@@H]2CCCN2CC)c1OCc1ccccc1 [compound 6]
functional properties in IP accumulation assay (in words) ([8]; D2S receptors): inverse agonist properties were observed as well, but potency was low | Emax ([8]; HEK-293T, relative to full effect of quinpirole (100%) and buffer (0%)): -22 ± 1.8% | EC50 ([8]; IP accumulation, ± SEM, 3-8 experiments, negative Emax = inverse agonist effect): 480 ± 310 nM | effect of irradiation at 365 nm for 20 sec on the compound's effect on IP accumulation (in words) [9]: does not affect; also recorded: no significant effect | Ki [4, 18]: 1300 ± 250 nM | Ki [3, 17]: 7700 ± 1100 nM | Emax ([10]; HEK-293T, in presence of 10 nM quinpirole, relative to quinpirole (100%) and buffer (0%), read-out: inhibitory effect Emax): -17 ± 9.8% | IC50 ([10]; blocking of the agonist effect of 10 nM quinpirole, ± SEM, 4-6 experiments, read-out: inhibitory effect IC50): 5500 ± 2900 nM | Ki [6, 19]: 510 ± 120 nM | Ki [7]: 480 ± 120 nM

CCc1cc(Cl)c(OC)c(C(=O)NC[C@@H]2CCCN2CC)c1O [eticlopride]
Ki (D2 and D3 receptors): 0.21 to 0.28 nM | Ki [4]: 0.25 ± 0.062 nM | Ki [11]: 220 ± 23 nM | behaviour upon illumination with λp = 365 nm (in words) [2]: fast decomposition rate towards light with λp = 365 nm | Ki [12]: 46000 ± 1100 nM | Ki [3]: 120 ± 19 nM | Ki [13]: 81 ± 2.1 nM | Ki ([1]; [3H]RX821002, ± SD of two experiments): 66 ± 19 nM | Ki [14]: 570 ± 250 nM | Ki [15]: 23000 ± 5800 nM | Ki [16]: 4900 ± 210 nM | Ki [6]: 0.28 ± 0.03 nM
